Results from patent publication US20230031406A1, “COMPOUNDS AND COMPOSITIONS FOR TREATING CONDITIONS ASSOCIATED WITH NLRP ACTIVITY” (Novartis AG, priority 2018, published 2023).
Read-outs that look alike come from different tables or passages of the source. One block for each compound: values may come before it.

Tested on: PMA-differentiated THP-1 cells
Test: IL-1β production in PMA-differentiated THP-1 cells stimulated with gramicidin (hTHP-1 assay containing 2% fetal bovine serum; Procedures 1 and 2)
Type: cell-based, human
Conditions: 2% fetal bovine serum
Method in brief: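 THP-1 cells were differentiated with PMA (20 ng/ml, 16-18 h), detached, and plated at 50,000 cells/well in RPMI 1640 with 2% FBS. They were pre-treated with compound (0.0017–100 μM, 0.37% DMSO) for 1 h, then stimulated with gramicidin (5 μM) for 2 h. Supernatant IL-1β was measured by HTRF.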

[1] = Homo sapiens, THP-1, Table B2, class symbols, read-out: hTHP-1 IC50
[2] = Homo sapiens, THP-1, Table B3, hTHP-1 assay, class symbols, read-out: IC50
[3] = Homo sapiens, THP-1, Table B1, class symbols, read-out: Average IC50 of compounds in hTHP-1 assay: hTHP-1 IC50
[4] = Homo sapiens, THP-1, Table B3, hTHP-1 assay, numeric values, read-out: IC50
[5] = Table B1, class symbols, read-out: Average IC50 of compounds in hTHP-1 assay: hTHP-1 IC50
[6] = Table B2, class symbols, read-out: hTHP-1 IC50
[7] = Table B3, hTHP-1 assay, class symbols, read-out: IC50

Compound: CCn1nc(S(N)(=O)=NC(=O)Nc2c3c(nc4c2CCC42CC2)CCC3)cc1CO (stereo not drawn) [Example 589, 1-Ethyl-5-(hydroxymethyl)-N′-((1′,5′,6′,7′-tetrahydro-2′H-spiro[cyclopropane-1,3′-dicyclopenta[b,e]pyridin]-8′-yl)carbamoyl)-1H-pyrazole-3-sulfonimidamide]
IC50 [2]: 1 to 5 µM

Compound: CC(C)c1csc(S(N)(=O)=NC(=O)Nc2c3c(nc4c2CCC4C)C(C)CC3)c1 (stereo not drawn) [Compound 123, N′-((3,5-dimethyl-1,2,3,5,6,7-hexahydrodicyclopenta[b,e]pyridin-8-yl)carbamoyl)-4-isopropylthiophene-2-sulfonimidamide]
IC50 [3]: 1 to 5 µM

Compound: CN(C)Cc1nc(C(C)(C)O)sc1[S@](N)(=O)=NC(=O)Nc1c2c(nc3c1CCC3(C)C)CCC2 [Compound 709]
IC50 (Homo sapiens, THP-1, Table B2, numeric bounds, read-out: hTHP-1 IC50): > 30 µM

Compound: CC1(C)CCc2c1nc1c(c2NC(=O)N=S(N)(=O)c2sc([C@@](C)(O)CO)nc2CO)CCC1 (stereo partly drawn) [Example 599, 2-((S)-1,2-dihydroxypropan-2-yl)-N′-((3,3-dimethyl-1,2,3,5,6,7-hexahydrodicyclopenta[b,e]pyridin-8-yl)carbamoyl)-4-(hydroxymethyl)thiazole-5-sulfonimidamide]
IC50 [2]: 1 to 5 µM

Compound: CC(C)n1nc(S(N)(=O)=NC(=O)Nc2c3c(nc4c2CCC4(C)C)CCC3)cc1CO (single isomer, unassigned) [Compound 652a]
IC50 [1]: 0.2 to 1 µM

Compound: CC(C)(O)c1cc(F)c(S(N)(=O)=NC(=O)Nc2c3c(nc4c2CCC4(C)C)CCC3)s1 (single isomer, unassigned) [Compound 102b, (R) or (S)-N′-((3,3-dimethyl-1,2,3,5,6,7-hexahydro-dicyclopenta[b,e]pyridin-8-yl)carbamoyl)-3-fluoro-5-(2-hydroxy-propan-2-yl)thiophene-2-sulfonimidamide]
IC50 [5]: 0.008 to 0.04 µM

Compound: CC(=O)c1csc(S(N)(=O)=NC(=O)Nc2c3c(nc4c2CC[C@H]4C)CCC3)c1 (single isomer, unassigned) [Example 666, (S) or (R)-4-acetyl-N′-(((R)-3-methyl-1,2,3,5,6,7-hexahydrodicyclopenta[b,e]pyridin-8-yl)carbamoyl)thiophene-2-sulfonimidamide]
IC50 [7]: 5 to 30 µM

Compound: COC(C)(C)c1nc(CO)c(S(N)(=O)=NC(=O)Nc2c3c(nc4c2CCC4(C)C)CCC3)s1 (single isomer, unassigned) [Compound 648a, (R) or (S)-N′-((3,3-dimethyl-1,2,3,5,6,7-hexahydrodicyclopenta [b,e]pyridin-8-yl)carbamoyl)-4-(hydroxymethyl)-2-(2-methoxypropan-2-yl)thiazole-5-sulfonimidamide]
IC50 [1]: 0.2 to 1 µM

Compound: CN(C)Cc1nc(C(C)(C)O)sc1S(N)(=O)=NC(=O)Nc1c2c(nc3c1CCC3(C)C)CCC2 (stereo not drawn) [compound 592, N′-((3,3-dimethyl-1,2,3,5,6,7-hexahydrodicyclopenta[b,e]pyridin-8-yl)carbamoyl)-4-((dimethylamino)methyl)-2-(2-hydroxypropan-2-yl)thiazole-5-sulfonimidamide]
IC50 [4]: > 30 µM

Compound: CC(C)c1cc(C#N)nc(C(C)C)c1NC(=O)NS(=N)(=O)c1sc(C(C)(C)O)nc1CO (stereo not drawn) [Compound 696, N-((6-cyano-2,4-diisopropylpyridin-3-yl)carbamoyl)-4-(hydroxymethyl)-2-(2-hydroxypropan-2-yl)thiazole-5-sulfonimidamide]
IC50 [1]: 5 to 30 µM

Compound: CC(C)c1ncc(F)c(C(C)C)c1NC(=O)N=S(N)(=O)c1ncc(C(C)(C)O)s1 (single isomer, unassigned) [Compound 165b]
IC50 [3]: 5 to 30 µM

Continued, values first:

IC50 [1]: 0.04 to 0.2 µM
Compound: CCc1csc(S(N)(=O)=NC(=O)Nc2c3c(nc4c2CC[C@H]4C)CCC3)c1 (stereo partly drawn) [Compound 721c, 4-Ethyl-N′-(((R)-3-methyl-1,2,3,5,6,7-hexahydrodicyclopenta [b,e]pyridin-8-yl)carbamoyl)thiophene-2-sulfonimidamide]

IC50 (Homo sapiens, THP-1, Table B1, numeric bounds, read-out: Average IC50 of compounds in hTHP-1 assay: hTHP-1 IC50): > 30 µM
Compound: CC(C)n1ccc(S(N)(=O)=NC(=O)Nc2c3c(nc4c2CCC4)CCC3)n1 (single isomer, unassigned) [Compound 119b, (S) or (R)-N′-((1,2,3,5,6,7-hexahydrodicyclo-penta[b,e]pyridin-8-yl)carbamoyl)-1-isopropyl-1H-pyrazole-3-sulfonimidamide]

IC50 [4]: > 30 µM
Compound: CC(C)n1nc(S(N)(=O)=NC(=O)Nc2c3c(nc4c2CC[C@H]4C)CCC3)cc1CO (single isomer, unassigned) [Example 644, (S) or (R)-5-(hydroxymethyl)-1-isopropyl-N′-(((R)-3-methyl-1,2,3,5,6,7-hexahydrodicyclopenta[b,e]pyridin-8-yl)carbamoyl)-1H-pyrazole-3-sulfonimidamide]

IC50 [1]: 0.04 to 0.2 µM
Compound: C[C@@H]1CCc2c1nc1c(c2NC(=O)N=S(N)(=O)c2cc(F)c(C(C)(C)O)s2)CCC1 (stereo partly drawn) [Compound 616, 4-Fluoro-5-(2-hydroxypropan-2-yl)-N′-(((R)-3-methyl-1,2,3,5,6,7-hexahydrodicyclopenta[b,e]pyridin-8-yl)carbamoyl)thiophene-2-sulfonimidamide]

IC50 [3]: 5 to 30 µM
Compound: Cn1nc(C(C)(C)O)cc1S(N)(=O)=NC(=O)Nc1c2c(nc3c1CCC3)CCC2 (stereo not drawn) [Compound 166, N′-((1,2,3,5,6,7-hexahydrodicyclopenta[b,e]pyridin-8-yl)carbamoyl)-3-(2-hydroxypropan-2-yl)-1-methyl-1H-pyrazole-5-sulfonimidamide]

IC50 [6]: 5 to 30 µM
Compound: Cc1c(C(C)C)nc2c(c1NC(=O)N=S(N)(=O)c1sc(C(C)(C)O)cc1F)CCC2 (single isomer, unassigned) [Compound 645b, (S) or (R)-3-Fluoro-5-(2-hydroxypropan-2-yl)-N′-((2-isopropyl-3-methyl-6,7-dihydro-5H-cyclopenta[b]pyridin-4-yl)carbamoyl) thiophene-2-sulfonimidamide]

IC50 (Table B1, numeric bounds, read-out: Average IC50 of compounds in hTHP-1 assay: hTHP-1 IC50): > 30 µM
Compound: CC(C)(O)c1ncc(S(N)(=O)=NC(=O)Nc2cc(-c3ccccc3)nc3c2CCC3)s1 (single isomer, unassigned) [Compound 142b, (S) or (R)-2-(2-hydroxy-propan-2-yl)-N′-((2-phenyl-6,7-dihydro-5H-cyclopenta[b]pyridin-4-yl)carbamoyl)thiazole-5-sulfonimidamide]

IC50 [5]: 0.04 to 0.2 µM
Compound: CC(C)n1ccc(S(N)(=O)=NC(=O)Nc2c3c(nc4c2CCC4(C)C)CCC3)n1 (single isomer, unassigned) [Compound 126a, (R) or (S)-N′-((3,3-dimethyl-1,2,3,5,6,7-hexahydro-dicyclopenta[b,e]pyridin-8-yl)carbamoyl)-1-isopropyl-1H-pyrazole-3-sulfonimidamide]

IC50 (Table B4, class symbols, read-out: hTHP-1 IC50): 5 to 30 µM
Compound: CCn1cc(F)c(S(N)(=O)=NC(=O)Nc2c3c(nc(C)c2-c2ccccc2)CCC3)n1 (single isomer, unassigned) [Example 769, (R) or (S)-1-ethyl-4-fluoro-N′-((2-methyl-3-phenyl-6,7-dihydro-5H-cyclopenta[b]pyridin-4-yl)carbamoyl)-1H-pyrazole-3-sulfonimidamide]

IC50 [1]: 0.2 to 1 µM
Compound: NS(=O)(=NC(=O)Nc1c2c(nc3c1CCC31CC1)CCC2)c1nn(C(F)F)cc1F (stereo not drawn) [Compound 719]

IC50 [7]: 5 to 30 µM
Compound: CCn1cc(F)c(S(N)(=O)=NC(=O)Nc2c3c(nc(C4CC4)c2C2CC2)CCC3)n1 (single isomer, unassigned) [Example 708, (S) or (R)-N′-((2,3-dicyclopropyl-6,7-dihydro-5H-cyclopenta[b]pyridin-4-yl)carbamoyl)-1-ethyl-4-fluoro-1H-pyrazole-3-sulfonimidamide]

IC50 [5]: 1 to 5 µM
Compound: CC1CCc2c1nc1c(c2NC(=O)N=S(N)(=O)c2sc(C(C)(C)O)cc2F)CCC1 (single isomer, unassigned) [Compound 103aa, (S,R) or (S,S)-3-fluoro-5-(2-hydroxypropan-2-yl)-N′-((3-methyl-1,2,3,5,6,7-hexahydrodicyclo-penta[b,e]pyridin-8-yl)carbamoyl)thiophene-2-sulfonimidamide]

IC50 [7]: 0.04 to 0.2 µM
Compound: CCn1cc(F)c(S(N)(=O)=NC(=O)Nc2c3c(nc4c2CC[C@@H]4C)CCC3)n1 (single isomer, unassigned) [Example 711, (R) or (S)-1-ethyl-4-fluoro-N′-(((S)-3-methyl-1,2,3,5,6,7-hexahydrodicyclopenta[b,e]pyridin-8-yl)carbamoyl)-1H-pyrazole-3-sulfonimidamide]

IC50 [1]: 1 to 5 µM
Compound: CCn1ccc(S(N)(=O)=NC(=O)Nc2c3c(nc(C4CC4)c2C2CC2)CCC3)n1 (stereo not drawn) [Compound 726]

IC50 [6]: 0.04 to 0.2 µM
Compound: Cc1c(C(F)(F)F)nc2c(c1NC(=O)N=S(N)(=O)c1sc(C(C)(C)O)cc1F)CCC2 (single isomer, unassigned) [Compound 632a, (R) or (S)-3-Fluoro-5-(2-hydroxypropan-2-yl)-N′-((3-methyl-2-(trifluoromethyl)-6,7-dihydro-5H-cyclopenta[b]pyridin-4-yl)carbamoyl) thiophene-2-sulfonimidamide]

IC50 [1]: 0.2 to 1 µM
Compound: Cc1nc2c(c(NC(=O)N=S(N)(=O)c3cc(C(C)(C)O)cs3)c1C1CC1)CCC2 (stereo not drawn) [Compound 623, N′-((3-cyclopropyl-2-methyl-6,7-dihydro-5H-cyclopenta[b]pyridin-4-yl)carbamoyl)-4-(2-hydroxypropan-2-yl)thiophene-2-sulfonimidamide]
